Measured values: patent US10758536B2, “Method for treating shingles with N-methanocarbathymidine (N-MCT)” (priority 2015, dated 2020)
Entries after “also recorded” stand apart in the source; their conditions may differ.

Assays:
[1] = test system: VZV; assay: Skin organ culture topical Assay 2: delayed treatment; assay type: cell-based, varicella-zoster virus
Protocol: (§1) Place 36 mL deionized sterile water into small beaker with stir bar. Slowly waft 900 mg of carbopol (980 NF, Lot # CCONLCC013, Lubrizol Corp) into water, avoiding clumps. Add equal volume N-MCT in 20% hydroxypropyl-β-cyclodextrin (Sigma) at 2× to reach the desired concentration. Add 2 drops NaOH (18% solution) to attain a pH near 5.0. Store at 4° C. The 0.5% cidofovir gel was made in a similar manner except that cidofovir was dissolved in water. The DMSO vehicle was prepared by adding a 2% DMSO solution in water to the carbopol suspension at a 1:1 ratio. Hydroxypropyl-β-cyclodextrin (HPBCD) was prepared by mixing 5.0 g with 20 mL sterile water. Stock solution of N-MCT was prepared by dissolving 90 mg N-MCT in 9 mL 20% HPBCD and sonicating for 1 min.
Human fetal skin was purchased from ABR and delivered by overnight courier on wet ice. The tissue was cleaned, disinfected in betadine and 70% ethanol, then cut into pieces approximately 1-cm^2. Each piece was inoculated with VZV-BAC-Luc strain that expresses firefly luciferase. Approximately 3 hours after inoculation, the pieces of skin were placed in NetWells above tissue culture medium and incubated overnight. The next day (Day 1) each piece of skin was soaked in D-luciferin for 45 min, and then scanned in the IVIS-50 instrument to measure Total Flux, which is a correlate of VZV pfu. The drug treatment began on Day 1 or later by spreading an aqueous gel (carbopol) containing N-MCT at concentrations of 0.05, 0.5, or 5% (see Assay 1 in Table 4 below). One group of skin was treated with cidofovir ([…] in carbopol gel) for a positive control. Each group contained 4-6 pieces of skin. The drug was applied daily until Day 5 (or other intervals), and then the skin pieces were scanned by IVIS to determine virus yield. […] The results were analyzed for statistical significance by ANOVA and Dunnett's post hoc test of multiple comparisons (GraphPad Prism).
This assay differs from Assay 1 in that the Vehicle was prepared with 10% HPBCD, which is the solvent for the N-MCT. Refer to Assay #2 in Table 4 above. Three groups were treated on Days 1-4 and scanned on Day 5, which is the typical assay protocol. Two groups were treated after a delay of several days, which more closely reflects a clinical scenario of zoster. All treated groups received the same preparation of 0.5% N-MCT in carbopol with 10% HPBCD. VZV yield was reduced in the Vehicle group during the treatment phase, and then rebounded. This was likely due to the effects of HPBCD, which has known antiviral properties. […] In contrast, VZV yield increased until Day 5 in the group that received no treatment until after this scan. The difference between this group and the Vehicle group was notable, since they were expected to be similar.

[2] = test system: VZV; assay: Skin organ culture topical Assay 3: vehicle comparison; assay type: cell-based, varicella-zoster virus
Protocol: as §1
This assay compared two vehicles, 1% DMSO and 10% hydroxypropyl-β-cyclodextrin (HPBCD) in carbopol gel, and 0.5% N-MCT in either vehicle. Refer to Assay #3 in Table 4 above. Each group was treated on Days 1-4 and scanned on Day 5, which is the typical assay protocol. The skin specimens were then cultured without drug or vehicle for another 6 days (scans on Day 7 and Day 11) to observe virus rebound. VZV yield was reduced in both Vehicle groups during the treatment phase, and then rebounded. This was likely due to the effects of the slightly acidic carbopol gel. There was little difference between the two vehicles. […] Importantly, there was no rebound in the groups treated with N-MCT. In fact, VZV yield continued to decrease after the treatment stopped.

[3] = test system: VZV; assay: Skin organ culture Assays 4 and 5: topical ointment vehicles; assay type: cell-based, varicella-zoster virus
From the text: Another objective of the invention was to test N-MCT at 0.5% in a variety of topical formulations in the SOC assay. The purpose was to determine the optimal topical formulation for N-MCT in full-thickness human skin. Human fetal skin was purchased from ABR and delivered by overnight courier on wet ice. The tissue was cleaned, disinfected in betadine and 70% ethanol, then cut into pieces approximately 1-cm^2. Each piece was inoculated with VZV-BAC-Luc strain that expresses firefly luciferase. Approximately 3 hours after inoculation, the pieces of skin were placed in NetWells above tissue culture medium and incubated overnight. The next day (Day 1) each piece of skin was soaked in D-luciferin for 45 min, and then scanned in the IVIS-50 instrument to measure Total Flux, which is a correlate of VZV pfu. The negative control group was not treated with drug or vehicle. The positive control drug treatment began on Day 1 by placing the skin, in NetWells, over medium containing 0.1 μg/mL N-MCT (see Table 5 below). The ointments were formulated with N-MCT by adding dry powder to the vehicle on a glass slab, then mixing thoroughly with a metal spatula. The ointments were warmed to 37° C. before spreading on the skin pieces with a Dacron swab. […] The virus yield in each piece of skin was calculated by dividing the Total Flux measured on Day 5 by Day […]

[4] = test system: VZV; assay: Delayed N-MCT treatment in SCID-Hu mice; assay type: in vivo, varicella-zoster virus; conditions: 50 mg/kg p.o. BID; treatment delayed 3 or 7 days after VZV infection
Protocol: Statistical analysis: Data were analyzed using Student's t test or one-way ANOVA and Dunnett's Multiple Comparison post hoc tests. Calculations were made using GraphPad Prism 5.02 for Windows (GraphPad Software, San Diego, Calif., www.graphpad.com). A p<0.05 was considered statistically significant.

[5] = Mouse weights and tolerability
Protocol: CB.17 scid/beige male mice were implanted subcutaneously with human fetal skin (the same type of specimens used for the skin organ culture assay). After 3 weeks engraftment period, the skin implants were inoculated with VZV-BAC-Luc. The mice were divided into 5 groups of 12 mice: vehicle, positive control drug, N-MCT low dose, medium dose, and high dose (see FIGS. 3A, 3B, 4A and 4B). Treatment began approximately 2 hours after the inoculation surgery and was administered by oral gavage. Treatment continued twice daily (8:30 am and 8:30 pm) on Days 1-7. The mice were scanned in the IVIS-200 instrument daily from Day 1-8. The mice were weighed before the start of the study and daily during the treatment phase.
CB.17 scid/beige male mice were implanted subcutaneously with human fetal skin (the same type of specimens used for the skin organ culture assay). After 3 weeks engraftment period, the skin implants were inoculated with VZV-BAC-Luc (5×10^3 pfu/implant). The mice were divided into 5 groups of 12 mice: vehicle, positive control drug cidofovir delayed to Days 4-11, N-MCT 50 mg/kg Days 0-7, Days 4-11, or Days 7-13 (see Table 6 below). Treatment began approximately 2 hours after the inoculation surgery and was administered by oral gavage. Treatment continued twice daily (8:30 am and 8:30 pm) on schedule. […] The mice were scanned in the IVIS-200 instrument daily from Day 1-14. The mice were weighed before the start of the study and daily during the treatment phase. The antiviral effects of N-MCT were determined by assessing the VZV growth kinetics and rates (Log10 Total Flux/day).
The animals used in this experiment were SCID-beige mice purchased from Taconic (age 6-7 weeks).

[6] = 50 mg/kg oral gavage, delayed-treatment study
[7] = all doses, dose-range study in mice

Q: For Cc1cn([C@]23C[C@H](O)[C@@H](CO)[C@@H]2C3)c(=O)[nH]c1=O [N-MCT, N-methanocarbathymidine], which “VZV yield, treatment on Days 3-6” value ([1]; 0.5% N-MCT QD 3-6 dpi, by Day 7) is on record?
A: The value was “reduced to a similar low level”.

Q: And the “VZV yield, treatment begun on Day 5” value ([1]; 0.5% N-MCT QD 5-8 dpi)?
A: Its value is “decreased sharply”.

Q: And the “VZV rebound after treatment on Days 1-4” value ([1]; 0.5% N-MCT in carbopol with 10% HPBCD)?
A: The value was “no rebound was observed”.

Q: And the “VZV yield, treatment on Days 1-4” value ([1]; 0.5% in carbopol QD 1-4 dpi, during and after treatment)?
A: The value was “equally reduced”.

Q: What about the “effectiveness as topical treatment when VZV infection established for 3-5 days” value ([1]; skin organ culture) of the same compound?
A: Its value is “highly effective”.

Q: And the VZV yield ([2]; 0.5% N-MCT in 1% DMSO or 10% HPBCD carbopol gel, Days 1-4)?
A: Its VZV yield is “substantial decrease”.

Q: What about the “cyclodextrin preparation compared with DMSO prep” value ([2]; 0.5% N-MCT in 10% HPBCD vs 1% DMSO carbopol) of the same compound?
A: Its value is “slightly more effective”.

Q: And the “VZV rebound after treatment stopped” value ([2]; scans on Day 7 and Day 11, no drug after Day 5)?
A: The value was “no rebound”.

Q: And the “effectiveness as topical formulation in SOC model” value ([3]; 0.5% N-MCT in ointments, daily, scan Day 5)?
A: Its value is “highly effective”.

Q: What about the “virus yield on Day 10 after treatment stopped, fold less” value ([3]; no treatment after Day 5, groups treated with N-MCT) of the same compound?
A: The value was 100 fold.

Q: And the “effectiveness in vivo when treatment is delayed” value [4]?
A: Its value is “effective; also recorded: can be delayed up to one week after infection”.

Q: What about the tolerability [5, 6] of the same compound?
A: Its tolerability is “well tolerated; also recorded: well-tolerated”.

Q: What about the weight loss [5, 6] of the same compound?
A: Its weight loss is “minimal weight loss”.

Q: And the tolerability [5, 7]?
A: The tolerability was “well tolerated”.

Q: What about the weight loss [5, 7] of the same compound?
A: The weight loss was “did not cause excessive weight loss”.
